Measured values as given in patent publication US20090181986A1, “SUBSTITUTED HETEROCYCLIC COMPOUNDS” (priority 2007, published 2009).

Molecular target: hERG potassium channel (Homo sapiens, UniProt Q12809)
Assay: hERG screening assay (PatchXpress patch clamp, CHO cells)

Chain of hERG potassium channel (Q12809 whole entry): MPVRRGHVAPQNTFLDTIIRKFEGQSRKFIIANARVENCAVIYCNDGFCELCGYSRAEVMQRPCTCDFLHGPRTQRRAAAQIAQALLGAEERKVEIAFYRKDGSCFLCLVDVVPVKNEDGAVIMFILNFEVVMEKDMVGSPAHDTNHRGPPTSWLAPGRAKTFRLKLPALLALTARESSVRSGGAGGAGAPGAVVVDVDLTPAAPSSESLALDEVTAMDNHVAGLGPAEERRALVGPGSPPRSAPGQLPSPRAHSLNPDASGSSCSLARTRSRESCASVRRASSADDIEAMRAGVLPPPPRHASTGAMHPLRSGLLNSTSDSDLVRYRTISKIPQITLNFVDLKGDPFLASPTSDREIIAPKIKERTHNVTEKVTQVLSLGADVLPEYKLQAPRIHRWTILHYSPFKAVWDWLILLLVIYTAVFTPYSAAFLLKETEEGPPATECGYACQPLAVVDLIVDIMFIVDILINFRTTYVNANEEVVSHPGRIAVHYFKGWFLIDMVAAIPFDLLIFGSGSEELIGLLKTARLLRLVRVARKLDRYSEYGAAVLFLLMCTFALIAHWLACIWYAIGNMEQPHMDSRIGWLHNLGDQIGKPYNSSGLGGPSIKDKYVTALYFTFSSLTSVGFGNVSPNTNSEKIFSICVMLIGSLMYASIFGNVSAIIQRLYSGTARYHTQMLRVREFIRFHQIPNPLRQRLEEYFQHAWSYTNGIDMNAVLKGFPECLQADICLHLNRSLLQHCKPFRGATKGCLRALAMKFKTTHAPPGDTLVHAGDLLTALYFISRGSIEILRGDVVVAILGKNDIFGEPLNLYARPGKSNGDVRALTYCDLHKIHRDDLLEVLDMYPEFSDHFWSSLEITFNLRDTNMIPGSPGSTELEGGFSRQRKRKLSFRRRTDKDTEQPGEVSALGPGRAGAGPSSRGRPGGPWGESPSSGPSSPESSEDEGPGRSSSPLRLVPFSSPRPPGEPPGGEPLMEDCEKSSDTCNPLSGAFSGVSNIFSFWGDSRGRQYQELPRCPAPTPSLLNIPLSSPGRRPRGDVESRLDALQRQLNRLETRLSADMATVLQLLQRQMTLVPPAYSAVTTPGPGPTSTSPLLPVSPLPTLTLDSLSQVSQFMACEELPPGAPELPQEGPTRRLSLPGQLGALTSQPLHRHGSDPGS

Row | SMILES | hERG Patch Clamp hERG % blk (1 μM test cmpd) | hERG Patch Clamp hERG % blk (10 μM test cmpd)
1 | CCOC(=O)C1=C(C)Nc2nnnn2C1c1ccccc1-n1ccnc1C.Cl (centres unmarked) [PT-457, ethyl 5-methyl-7-(2-(2-methyl-1H-imidazol-1-yl)phenyl)-4,7-dihydrotetrazolo[1,5-a]pyrimidine-6-carboxylate hydrochloride] | 10% | 21%
2 | CC1=C(C(=O)OCc2ccccc2)C(c2cccc3c2OCO3)n2nnnc2N1 (centres unmarked) [PT-034, benzyl 7-(benzo[d][1,3]dioxol-4-yl)-5-methyl-4,7-dihydrotetrazolo[1,5-a]pyrimidine-6-carboxylate] | 14.5% | 56%
3 | CCOC(=O)C1=C(C)NC2=C(C(=O)CCC2)C1c1cccc2ncccc12 (centres unmarked) [PT-140, ethyl 2-methyl-5-oxo-1,4,5,6,7,8-hexahydro-4,5′-biquinoline-3-carboxylate] | 13.5% | 34.5%
4 | CC1=C(C(=O)O[C@@H](C)c2ccccc2)[C@@H](c2cccc3ccccc23)n2nnnc2N1 [PT-050, (R)-((S)-1-phenylethyl) 5-methyl-7-(naphthalen-1-yl)-4,7-dihydrotetrazolo[1,5-a]pyrimidine-6-carboxylate] | 10% | 53.5%
5 | COC(=O)c1ccc(-c2n[nH]c3c2C(c2cccc4ccccc24)C2=C(COC2=O)N3)cc1 (centres unmarked) [PT-085, methyl 4-(4-(naphthalen-1-yl)-5-oxo-4,5,7,8-tetrahydro-1H-furo[3,4-b]pyrazolo[4,3-e]pyridin-3-yl)benzoate] | 34% | 44.5%
6 | CCOC(=O)C1=C(CC)Nc2nnnn2C1c1cccc2ccccc12 (centres unmarked) [PT-010, ethyl 5-ethyl-7-(naphthalen-1-yl)-4,7-dihydrotetrazolo[1,5-a]pyrimidine-6-carboxylate] | 12.5% | 30%
7 | CC1=C(C(=O)OCc2ccccc2)[C@@H](c2ccccc2-c2ccc(Cl)s2)n2nnnc2N1 [PT-237, (R)-benzyl 7-(2-(5-chlorothiophen-2-yl)phenyl)-5-methyl-4,7-dihydrotetrazolo[1,5-a]pyrimidine-6-carboxylate] | 11.5% | 22.5%
8 | CC1=C(C(=O)OCc2ccccc2)C(c2nccs2)n2nnnc2N1 (centres unmarked) [PT-364, benzyl 5-methyl-7-(thiazol-2-yl)-4,7-dihydrotetrazolo[1,5-a]pyrimidine-6-carboxylate] | 10% | 17.5%
9 | CC1=C(C(=O)OCc2ccccc2)C(c2ccccc2-c2ccccc2)n2nnnc2N1 (centres unmarked) [PT-025, benzyl 7-(biphenyl-2-yl)-5-methyl-4,7-dihydrotetrazolo[1,5-a]pyrimidine-6-carboxylate] | 11% | 53%
10 | CCOC(=O)C1=C(C)Nc2nnnn2C1c1ccccc1-n1cccn1.Cl (centres unmarked) [PT-477, ethyl 7-(2-(1H-pyrazol-1-yl)phenyl)-5-methyl-4,7-dihydrotetrazolo[1,5-a]pyrimidine-6-carboxylate hydrochloride] | 12% | 44%
11 | CC1=C(C(=O)OCc2ccccc2)C(c2nccs2)n2nccc2N1 (centres unmarked) [PT-363, benzyl 5-methyl-7-(thiazol-2-yl)-4,7-dihydropyrazolo[1,5-a]pyrimidine-6-carboxylate] | 10% | 19.5%
12 | CC1=C(C(=O)OCc2ccccc2)C(c2occc2-c2ccc(F)cc2)n2nnnc2N1 (centres unmarked) [PT-396, benzyl 7-(3-(4-fluorophenyl)furan-2-yl)-5-methyl-4,7-dihydrotetrazolo[1,5-a]pyrimidine-6-carboxylate] | 10% | 32%
13 | CCOC(=O)C1=C(C)Nc2nnnn2C1c1ccccc1-c1cccc(-c2nnn[nH]2)c1 (centres unmarked) [PT-493, ethyl 7-(3′-(1H-tetrazol-5-yl)biphenyl-2-yl)-5-methyl-4,7-dihydrotetrazolo[1,5-a]pyrimidine-6-carboxylate] | 10% | 10%
14 | COC(=O)C1=C(C)Nc2nnnn2C1c1cccc2ccccc12 (centres unmarked) [PT-512, methyl 5-methyl-7-(naphthalen-1-yl)-4,7-dihydrotetrazolo[1,5-a]pyrimidine-6-carboxylate] | 10.5% | 14%
15 | COc1cc(Cl)ccc1COC(=O)C1=C(C)Nc2nnnn2C1c1c(Cl)cccc1Cl (centres unmarked) [PT-306, 4-chloro-2-methoxybenzyl 7-(2,6-dichlorophenyl)-5-methyl-4,7-dihydrotetrazolo[1,5-a]pyrimidine-6-carboxylate] | 10% | 48.5%
16 | CC1=C(C(=O)OCc2ccc(Cn3cccn3)cc2)C(c2cccs2)n2nnnc2N1 (centres unmarked) [PT-280, 4-((1H-pyrazol-1-yl)methyl)benzyl 5-methyl-7-(thiophen-2-yl)-4,7-dihydrotetrazolo[1,5-a]pyrimidine-6-carboxylate] | 11.5% | 48%

Row | SMILES | hERG Patch Clamp hERG % blk (1 μM test cmpd) | hERG Patch Clamp hERG % blk (10 μM test cmpd)
17 | CC1=C(C(=O)OC(c2ccccc2)C2CC2)C(c2cccc3ccccc23)n2nnnc2N1 (centres unmarked) [PT-002, cyclopropyl(phenyl)methyl 5-methyl-7-(naphthalen-1-yl)-4,7-dihydrotetrazolo[1,5-a]pyrimidine-6-carboxylate] | 11.5% | 28%
18 | C=CCOC(=O)C1=C(C)Nc2nnnn2C1c1cccc2ccccc12 (centres unmarked) [PT-319, allyl 5-methyl-7-(naphthalen-1-yl)-4,7-dihydrotetrazolo[1,5-a]pyrimidine-6-carboxylate] | 10% | 41%
19 | CC1=C(C(=O)OCc2ccccc2)C(c2ccc3ccccc3c2)C2=C(CCCC2=O)N1 (centres unmarked) [PT-320, benzyl 2-methyl-4-(naphthalen-2-yl)-5-oxo-1,4,5,6,7,8-hexahydroquinoline-3-carboxylate] | 10% | 10%
20 | CC1=C(C(=O)OCc2ccccc2)C(c2ccccc2N2CCN(S(C)(=O)=O)CC2)n2nnnc2N1 (centres unmarked) [PT-339, benzyl 5-methyl-7-(2-(4-(methylsulfonyl)piperazin-1-yl)phenyl)-4,7-dihydrotetrazolo[1,5-a]pyrimidine-6-carboxylate] | 11.5% | 43.5%
21 | CCOC(=O)C1=C(C)Nc2nnnn2C1c1csc2ccccc12 (centres unmarked) [PT-017, ethyl 7-(benzo[b]thiophen-3-yl)-5-methyl-4,7-dihydrotetrazolo[1,5-a]pyrimidine-6-carboxylate] | 10% | 23.5%
22 | CC1=C(C(=O)OCc2ccccc2)C(c2nccs2)c2cn[nH]c2N1 (centres unmarked) [PT-369, benzyl 6-methyl-4-(thiazol-2-yl)-4,7-dihydro-1H-pyrazolo[3,4-b]pyridine-5-carboxylate] | 10% | 25%
23 | CC1=C(C(=O)OCc2ccccc2)C(c2c(-c3ccc(C(=O)O)cc3)sc3ccccc23)n2nnnc2N1 (centres unmarked) [PT-294, 4-(3-(6-(benzyloxycarbonyl)-5-methyl-4,7-dihydrotetrazolo[1,5-a]pyrimidin-7-yl)benzo[b]thiophen-2-yl)benzoic acid] | 12.5% | 15.5%
24 | CC1=C(C(=O)OCc2ccccc2)C(c2ccc(N(C)C)c3ccccc23)n2nnnc2N1 (centres unmarked) [PT-032, benzyl 7-(4-(dimethylamino)naphthalen-1-yl)-5-methyl-4,7-dihydrotetrazolo[1,5-a]pyrimidine-6-carboxylate] | 19% | 50.5%
25 | CCCC1=C(C(=O)OCC)C(c2ccc(C(=O)O)cc2)C2=C(CC(C)(C)CC2=O)N1 (centres unmarked) [PT-133, 4-(3-(ethoxycarbonyl)-7,7-dimethyl-5-oxo-2-propyl-1,4,5,6,7,8-hexahydroquinolin-4-yl)benzoic acid] | 10% | 12%
26 | CCOC(=O)C1=C(C)NC2=C(C(=O)CCC2)C1c1ccnc2ccccc12 (centres unmarked) [PT-190, ethyl 2-methyl-5-oxo-1,4,5,6,7,8-hexahydro-4,4′-biquinoline-3-carboxylate] | 10.5% | 32%
27 | CCOC(=O)C1=C(C)Nc2nccn2C1c1ccc2ccccc2c1 (centres unmarked) [PT-086, ethyl 7-methyl-5-(naphthalen-2-yl)-5,8-dihydroimidazo[1,2-a]pyrimidine-6-carboxylate] | 13.5% | 57.5%
28 | CC(=O)c1ccc(-c2ccccc2C2C(C(=O)OCc3ccccc3)=C(C)Nc3nnnn32)cc1 (centres unmarked) [PT-415, benzyl 7-(4′-acetylbiphenyl-2-yl)-5-methyl-4,7-dihydrotetrazolo[1,5-a]pyrimidine-6-carboxylate] | 10.5% | 38.5%
29 | CCOC(=O)C1=C(C)Nc2nnnn2C1c1cc2ccccc2o1 (centres unmarked) [PT-019, ethyl 7-(benzofuran-2-yl)-5-methyl-4,7-dihydrotetrazolo[1,5-a]pyrimidine-6-carboxylate] | 10% | 26%
30 | CC1=C(C(=O)OCc2ccccc2)C(c2ccccc2-c2ccc(C(=O)O)cc2)n2nnnc2N1 (centres unmarked) [PT-254, 2′-(6-(benzyloxycarbonyl)-5-methyl-4,7-dihydrotetrazolo[1,5-a]pyrimidin-7-yl)biphenyl-4-carboxylic acid] | 15% | 20%
31 | CC1=C(c2nnc(CCc3ccccc3)o2)C(c2cccc3ccccc23)n2nnnc2N1 (centres unmarked) [PT-252, 2-(5-methyl-7-(naphthalen-1-yl)-4,7-dihydrotetrazolo[1,5-a]pyrimidin-6-yl)-5-phenethyl-1,3,4-oxadiazole] | 10.5% | 78%
